Measured values published in patent publication US8318950B2, “N-acyl amino acid derivatives, a method for the preparation thereof, a pharmaceutical composition and use thereof as anti-allergic, anti-inflammatory and hypolipidemic agents” (Otkrytoe Aktsionernoe Obschestvo-Otechestvennye Lekarstva, priority 2005, dated 2012).

Key:
[1] = test system: endogenous hypercholesterolemia in guinea pigs; test: Model of endogenous hypercholesterolemia in guinea pigs (fat loading); assay type: in vivo, guinea pig; set-up: Serum total cholesterol / Serum total triglyceride levels: unit not given here; conditions: for Serum total cholesterol / Serum total triglyceride levels: fat loading + compound 500 μg/kg orally
Procedure: The study was carried out on male guinea pigs (Aguti line) weighing 304±25 g. The experiment lasted 31 days. The control group included 6 guinea pigs (intact animals). The compounds studied were administered from day 1 of the experiment (from day 1 of administering fat loading).
The animals of experimental groups received orally for 31 days a compound studied and fat loading. The compound studied at doses indicated below was administered in the form of an aqueous solution (0.5 ml per an animal); fat loading (a mixture of porcine fat and preliminary heated corn oil at 4:1 ratio by volume, at the rate of 5 ml/kg weight 0.5 h post administering the substance studied.
1) “control”—intact animals;
2) “fat”—animals that received fat loading only
3) “compound IV”—animals that received fat loading+compound IV at dose 500 μg/kg body weight;
4) “compound V”—animals that received fat loading+compound V at dose 500 μg/kg body weight.
Statistical processing was carried out using a mono-factorial analysis of variance.

[2] = test system: guinea pig blood basophils; test: In vitro ovalbumin (OA)-induced blood basophil degranulation of immunized guinea pig; assay type: cell-based; conditions: for inhibition at 1000 µM / inhibition at 100 µM / inhibition at 10 µM: Cavia porcellus, read-out: Complete degranulation inhibition (CDI)
Procedure: Leukocytes from guinea pig blood were isolated according to the Freemel's method [Immunologicheskiye Metody under edition of G. Frimel/Moscow., “Meditsina” publishers, 1987, p. 222 in the inventor's modification].
Guinea pigs of both sexes weighing from 600 to 800 g were used to conduct the test. The animals were once immunized with a mixture of 10 μg ovalbumin and 100 mg aluminum hydroxide per one animal according to Andersson [Anderson P. Antigen-induced bronchial anaphylaxis in actively sensitized guinea-pigs.//Allergy. 1980. Vol. 35. P. 63-71].
Under ester anesthesia, 15 ml blood were drawn from guinea pig heart. Double precipitation of cells using EDTA and a citrate-containing precipitating liquid was used to isolate basophils in the leukocyte suspension.
Blood was mixed with 5% EDTA.Na2 2H2O (“Sigma”) solution at 9:1 ratio and in 30 minutes it was subjected to mild centrifugation (for 12 minutes at 80 g). Supernatant was collected and centrifuged for 15 minutes at 500 g.
To the remaining cells, a citrate-containing precipitating liquid (3) was added at proportion 3:10 (it was thermostated at 37° C. for 30 minutes). A supernatant fraction enriched by leukocytes was centrifuged for 7 minutes at 100 g. To leukocyte precipitate, 0.85% NaCl solution was added and cellular concentration was brought to 30×10^3 μl.
Protocol of the in vitro basophil degranulation test [Spravochnil po klinicheskim laboratomym metodam issledovaniya (A reference book on clinical-laboratory examination methods)/Edited by E. A. Cost/Moscow, “Meditsina” publishers, 1975, p. 130].
For the test, a centrifuge tube (3 tubes per each sample) was filled with 300 μl cellular suspension, then salt solution of a tested compound (or a salt solution in the control of spontaneous and maximum degranulation) was added and pre-incubated at 37° C. for 15 minutes, then into each tube 300 μl 1% OA solution was added (in the control of spontaneous degranulation a salt solution in the same amount was added) and once more pre-incubated at 37° C. for 10 minutes. Functional leukocyte concentration was 10^4/μl. Samples (100 μl) were taken off from each tube into separate tubes to assess a complete basophil degranulation, and to the remained cells, a cooled salt solution was added (5 ml into each tube) to arrest degranulation reaction, then the tubes were centrifuged for 7 min at 100 g, and from precipitate, preparations for microscopy were prepared. The preparations were fixed and stained according to the method of Seder et al. [Seder R. A. et al. Mouse splenic and bone marrow cell populations that express high—affinity Fcε receptors and produce interleukin-4 are highly enriched in basophils.//Proc. Natl. Acad. USA, 1991, V. 88, P. 2835-2839].
In order to detect a specific basophil granulation, the dye 0.5% alcyanic blue (pH 1.0) was used, nuclei were additionally stained with safranin (0.1% solution in 1% acetic acid). The preparations were used to assess a total degranulation inhibition.
A total degranulation inhibition (DI) (%) was calculated according to the formula: […]
max—% of degranulated basophils at the maximum degranulation (OA)
spontaneous—% of degranulated basophils in spontaneous degranulation (control)
experimental—% of degranulated basophils following exposure to the tested compound.
Assessment of a Complete Basophil Degranulation
Samples selected following basophil degranulation test (100 μl each) were poured into tubes with the dye (0.5% alcyane blue, pH 1.0) at ratio 1:1. Staining was carried out at room temperature for not less than 50 min. Stained basophils were calculated using the Fooks-Rosenthal chamber. Inhibition of a complete basophil degranulation (ICD) was calculated according to the formula: ICD(%)=1−[(Mm(c)−Mm(exper.)]/Mm(c)−Mm(OA)]×100, wherein
M m (c)—mean (by three samples) basophil number in the spontaneous basophil degranulation test
M±m (OA)—mean (by three samples) basophil number in the maximum antigen-induced basophil degranulation test; […]

[3] = test system: passive cutaneous anaphylaxis; conditions: in vivo; cited from earlier work
[4] = test system: delayed type hypersensitivity; conditions: doses 50 and 500 μg/kg; cited from earlier work
[5] = test system: antigen-induced bronchial spasm; conditions: oral and intratracheal route, 50 μg/kg; cited from earlier work
[6] = test system: animals with atherogenic loading; conditions: WO 99/01103, similar biological experiment; cited from earlier work
[7] = test system: carrageenan-induced rat paw edema; test: Carrageenan rat paw edema; assay type: in vivo; conditions: 1% gel applied on the paw three times; paw volume 4 hours post carrageenan
Procedure: The experiments were performed on white outbred male rats weighing 250 g. A total amount of animals per an experiment was 12.
The model of carrageenan-induced edema seconding to the method of Winter et al. was used (Winter et al. Studies of the mediators of the acute inflammatory response induced in rats in different sites by carrageenan and turpentine.//J. Phamacol. 1971. V. 104. P. 15-29). 0.1 ml 1% carrageenan solution (SERVA) was subplantarly injected into the right rat paw. The animals were placed into individual chambers. Gel (1%) comprising a substance tested was applied on the paw three times: immediately following carrageenan administration, ate 1 and 2 hours post administration. 4 hours post administration of carrageenan, paw volumes were measured using a plethysmograph (Ugo Basile) Therapeutic effect of the gel was assessed by inhibition degree of inflammatory reaction in comparison with the intact left paw of the given animal and rat paw reaction of the control (untreated) group inflammatory reaction inhibition expressed in percent, was calculated according to the formula: […]

[8] = day 31, blood serum, 500 μg/kg orally (Table 24)
[9] = day 31, blood serum, 500 μg/kg orally (Table 25)

O=C(O)CCC(=O)N[C@@H](Cc1c[nH]cn1)C(=O)O [Compound V, N^α-succinyl-L-histidine]
Serum total cholesterol ([1]; Day 28): 52.9 ± 6.5 | Serum total triglyceride levels ([1]; Day 28): 62.3 ± 5.4 | Serum total cholesterol ([1]; Day 31): 46.3 ± 4.1 | Serum total triglyceride levels ([1]; Day 31): 56.0 ± 6.1 | lowered LDL cholesterol ([1]; by day 31 of the experiment): 38% | lowered total cholesterol level ([1]; by day 31 of the experiment): 37.8% | Cholesterol, LDL [1, 8]: 41.9 ± 2.7 mg/100 ml | Cholesterol, Total [1, 8]: 46.3 ± 4.1 mg/100 ml | Cholesterol, VLDL [1, 8]: 2.1 ± 0.4 mg/100 ml | Triglycerides, LDL [1, 9]: 23.1 ± 1.9 mg/100 ml | Triglycerides, Total [1, 9]: 56 ± 6.1 mg/100 ml | Triglycerides, VLDL [1, 9]: 22.5 ± 4.4 mg/100 ml | Number of completely degranulated basophils ([2]; 10^−3 M): 35.3 ± 7.29% | Number of completely degranulated basophils ([2]; 10^−4 M): 31.2 ± 6.8% | Number of completely degranulated basophils ([2]; 10^−5 M): 24.6 ± 10.38% | inhibition at 1000 µM ([2]; 10^−3 M): 10.6 ± 7.6% | inhibition at 100 µM ([2]; 10^−4 M): 18.9 ± 11.8% | inhibition at 10 µM ([2]; 10^−5 M): 44 ± 11.3%

O=C(O)CCCC(=O)NCCc1cnc[nH]1 [Glutaryl histamine, glutaryl histamine, reference compound]
Complete degranulation inhibition (CDI) ([2]; 10^−3 M): 9.3 ± 5.5% | Number of completely degranulated basophils ([2]; 10^−3 M): 31.6 ± 6.33% | Complete degranulation inhibition (CDI) ([2]; 10^−4 M): 24.1 ± 1.1% | Number of completely degranulated basophils ([2]; 10^−4 M): 25.3 ± 3.38% | Complete degranulation inhibition (CDI) ([2]; 10^−5 M): 0% | Number of completely degranulated basophils ([2]; 10^−5 M): 29.8 ± 6.73% | manifestations of passive cutaneous anaphylaxis [3]: capable of lowering manifestations | intensity of delayed type hypersensitivity [4]: significantly lower intensity | Decrease in bronchial spasm value as compared to the control [5]: > 50% | lowering total cholesterol level [6]: 9%

C[C@]12CCC(=O)C=C1CC[C@@H]1[C@@H]2[C@@H](O)C[C@@]2(C)[C@H]1CC[C@]2(O)C(=O)CO [Hydrocortisone, reference compound]
Number of completely degranulated basophils ([2]; 10^−3 M): 10.0 ± 0.7% | Number of completely degranulated basophils ([2]; 10^−4 M): 17.3 ± 0.9% | Number of completely degranulated basophils ([2]; 10^−5 M): 20.0 ± 1.3% | inhibition at 1000 µM ([2]; 10^−3 M): 71 ± 1.6% | inhibition at 100 µM ([2]; 10^−4 M): 48 ± 0.8% | inhibition at 10 µM ([2]; 10^−5 M): 40 ± 0.6%

COC(=O)[C@H](Cc1c[nH]cn1)NC(=O)CCC(=O)O [VI, N^α-succinyl-L-histidine methyl ester]
inhibition of edema [7]: 44%

COC(=O)[C@H](Cc1c[nH]c2ccccc12)NC(=O)CCCC(=O)O [XIII, N^α-glutaryl-L-tryptophane methyl ester]
inhibition of edema [7]: 40%

O=C(O)Cc1ccccc1Nc1c(Cl)cccc1Cl [diclofenac, reference compound]
inhibition of edema [7]: 62%
